Measurements taken from article PMC10645073, “Interaction of gallium, indium and vanadyl diacetylcurcumin complexes with lysozyme: mechanistic aspects and evaluation of antiamyloidogenic activity” (Royal Society Open Science, 2023).

Experiments:
[1] = target: T1, hen egg white lysozyme (HEWL) (Gallus gallus, UniProt P00698); assay: Intrinsic fluorescence quenching of HEWL (Stern-Volmer, double logarithmic and van't Hoff analysis); type: binding; settings: for KSV (Stern-Volmer quenching constant): HEWL 3 µM; for kq (bimolecular quenching rate constant): kq = KSV/τ0, τ0 10^−8 s; for blue shift of HEWL emission maximum on quenching: excitation 295 nm, emission maximum 345 nm; for fluorescence quenching mechanism: from KSV versus temperature and kq; for main forces / modes of interaction stabilizing the bioconjugate: from signs of ΔH^0 and ΔS^0; for binding constant, order of magnitude: summary of table 1; for ΔH^0 (enthalpy change of binding) / ΔS^0 (entropy change of binding): van't Hoff plot over 293–308 K
T1 construct: whose 129 amino acid residues are linked together by four disulfide bridges to form a single polypeptide chain; purchased Sigma-Aldrich L6876; host or cells: hen egg white (natural source, per the protein's name)
T1 sequence (P00698 19-147): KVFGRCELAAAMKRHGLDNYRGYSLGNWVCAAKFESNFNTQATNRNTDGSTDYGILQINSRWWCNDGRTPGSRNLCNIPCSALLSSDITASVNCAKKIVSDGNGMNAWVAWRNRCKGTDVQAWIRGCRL
Description: The intrinsic fluorescence spectra of HEWL (3 µM) in the absence and presence of Ga(DAC)3, In(DAC)3 and VO(DAC)2 complexes were collected using a Varian Cary Eclipse fluorescence spectrophotometer equipped with a 10 mm quartz cell by adjusting the excitation wavelength to 295 nm and setting the width of both excitation and emission slits at 5 nm. After adding the mentioned concentrations of the metal complexes of diacetylcurcumin to HEWL solution, the samples were scanned in the wavelength range of 300–500 nm. Corrections were made for the inner filter effect on the fluorescence spectra according to the following equation: Fcor=Fobs×10^(Aex+Aem)/2, where Fcor is corrected fluorescence intensity, Fobs is the observed (uncorrected) fluorescence intensity, Aex is the absorbance at the fluorescence excitation wavelength and Aem is the absorbance at the selected fluorescence emission wavelength.
The fluorescence quenching process of HEWL in the presence of three metal complexes of diacetylcurcumin can be quantified according to the well-known Stern-Volmer equation:3.1 F0/F=1+KSV[Q]=1+kqτ0[Q],
where F0 and F represent the intrinsic emission intensities of HEWL fluorophores, respectively, in the absence and presence of the metal complexes of diacetylcurcumin, and [Q] is the molar concentration of quencher. KSV, kq and τ0 denote the Stern-Volmer quenching constant, bimolecular quenching rate constant, and the average lifetime of fluorophore without quencher, respectively. The value of KSV, as a parameter of the sensitivity of the fluorophore to a quencher, can be estimated from the slope of the linear plot of F0/F as a function of [Q] (figure 2d,e,f; electronic supplementary material, figure S1). To obtain more accurate quantification of fluorescence data, the total area of the emission fluorescence peaks (S0 and S) was applied instead of the emission fluorescence intensities (F0 and F). The fluorescence quenching phenomenon can be generally divided into two distinct classes: static quenching and dynamic quenching. Owing to the reciprocal and direct correlations between the KSV parameter and temperature, respectively, for static and dynamic quenching, the observed trend in the KSV value versus temperature can be used to distinguish these mechanisms from each other. In dynamic quenching, an increase in temperature leads to faster diffusion of molecules by which weakly bound nonfluorescent complexes are further dissociated, and the value of KSV increases. From the data recorded in table 1, it can be seen that the KSV value of HEWL/Ga(DAC)3 and HEWL/In(DAC)3 systems decreases as temperature increases, while it increases with increasing temperature for the HEWL/VO(DAC)2 system. […] Considering a lifetime value of 10^−8 s for the native fluorophores, [27] the equation kq = KSV/τ0 gives the kq values greater than the diffusion-limited quenching value of 2.0 × 10 ^+ 10 M^−1 s^−1 for all systems.
Assuming that all the binding sites of HEWL are identical and independent and an equilibrium interaction is established between HEWL and each of the metal complexes of diacetylcurcumin, the fluorescence quenching process can be further analysed by the following double logarithmic equation:3.2 log(F0−F/F)=logKb+nlog[Q], where Kb and n represent the binding constant and number of binding sites on each HEWL molecule, respectively. Plotting log[(F0 − F)/F] versus log[Q] produces a straight line whose slope and intercept can be used respectively to estimate the values of n and Kb (electronic supplementary material, figures S2A, S2B, S2C and S3). […] In other words, the resulting bioconjugates are the product of the interaction between HEWL and the metal complexes of diacetylcurcumin with a 1 : 1 stoichiometry. […]

HEWL amyloid fibrils = target: T2, HEWL amyloid fibrils (Gallus gallus, UniProt P00698); assay: Thioflavin T fluorescence assay of HEWL amyloid fibrillation; type: biochemical, hen; settings: HEWL 70 µM, complex 10 µM; for effect on amyloid fibrillation of HEWL (ThT fluorescence): pH 2.0, 140 min incubation
T2 construct: whose 129 amino acid residues are linked together by four disulfide bridges to form a single polypeptide chain; purchased Sigma-Aldrich L6876; host or cells: hen egg white (natural source, per the protein's name)
T2 sequence (P00698 19-147): as above
Description: To prepare HEWL amyloid fibrils, a solution of the protein (5 ml, 70 µM) was prepared in 100 mM PBS, and the pH adjusted to 2.0 using hydrochloric acid. The solution was then incubated in a shaker incubator bath at 450 rpm and 58°C for 140 min. To investigate the effect of the diacetylcurcumin-based metal complexes on HEWL amyloid fibrillation, three separate samples, each containing HEWL (70 µM) and one of the metal complexes of diacetylcurcumin (10 µM), were prepared and incubated under the above conditions.
For ThT assay, a 17 µl volume of the incubated HEWL (70 µM) samples was added to 983 µl of ThT solution for the final HEWL and ThT concentrations of 1.2 µM and 20 µM, respectively. ThT spectra containing the incubated HEWL/metal complexes were recorded 5 min after recording the spectrum of ThT solution as control solution. All spectra were recorded using a Varian Cary Eclipse fluorescence spectrophotometer at 25°C. ThT solution was excited with a 440 nm wavelength and emission fluorescence spectra were recorded in the wavelength range of 450–600 nm.
Enhancement of ThT fluorescence intensity upon its rapid and strong binding to the cross β-sheet structure of amyloid fibrils is important evidence to confirm the amyloid fibril formation of proteins. The inhibitory activities of Ga(DAC)3, In(DAC)3 and VO(DAC)2 complexes on the amyloid fibrillation process of HEWL were explored by ThT fluorescence assay over 140 min period of incubation at pH 2.0. The kinetics of the fibrillation process in the absence and presence of the considered complexes is depicted in figure 4a.
To estimate the lag time and apparent rate constant for growth of fibrils, the following equation was employed on the ThT fluorescence data: F=Fmin+Fmax/1+e^−(t−t0/τ),
where F is the fluorescence intensity in t, Fmin and Fmax are fluorescence intensities in initial time and saturation phase, respectively, t is incubation time and t0 is required time to get 50% of maximal fluorescence intensity. The apparent rate constant, kapp, is given by 1/τ and the lag time is approximated by t0 − 2τ. […]

mouse lymphoma cells = system: mouse lymphoma cells; design: method as in PMID 16171869; settings: read-out: IC50 cytotoxicity; cited from earlier work

Compound | n (number of binding sites on each HEWL molecule) ([1]; T 293 K) | ΔG^0 (Gibbs free energy change of binding) ([1]; T 293 K) [kcal/mol] | KSV (Stern-Volmer quenching constant) ([1]; T 293 K) | kq (bimolecular quenching rate constant) ([1]; T 293 K) | n (number of binding sites on each HEWL molecule) ([1]; T 303 K) | ΔG^0 (Gibbs free energy change of binding) ([1]; T 303 K) [kcal/mol] | KSV (Stern-Volmer quenching constant) ([1]; T 303 K) | kq (bimolecular quenching rate constant) ([1]; T 303 K) | n (number of binding sites on each HEWL molecule) ([1]; T 308 K) | ΔG^0 (Gibbs free energy change of binding) ([1]; T 308 K) [kcal/mol] | KSV (Stern-Volmer quenching constant) ([1]; T 308 K) | kq (bimolecular quenching rate constant) ([1]; T 308 K) | blue shift of HEWL emission maximum on quenching [1] [nm] | fluorescence quenching mechanism [1] | main forces / modes of interaction stabilizing the bioconjugate [1] | binding constant, order of magnitude [1] | ΔH^0 (enthalpy change of binding) [1] [kcal/mol] | ΔS^0 (entropy change of binding) [1] [J mol^−1 K^−1] | effect on amyloid fibrillation of HEWL (ThT fluorescence) (HEWL amyloid fibrils) | IC50 (mouse lymphoma cells) [µM] | other results
COc1cc(C=CC(=O)C=C([O-])C=Cc2ccc(OC(C)=O)c(OC)c2)ccc1OC(C)=O.COc1cc(C=CC(=O)C=C([O-])C=Cc2ccc(OC(C)=O)c(OC)c2)ccc1OC(C)=O.COc1cc(C=CC(=O)C=C([O-])C=Cc2ccc(OC(C)=O)c(OC)c2)ccc1OC(C)=O.[In+3] [In(DAC)3, indium diacetylcurcumin] | (1.26 ± 0.01) | -8.368 ± 0.0024 | (0.10 ± 0.00) × 10^+6 M^−1 | (0.10 ± 0.00) × 10^+14 M^−1 s^−1 | (1.25 ± 0.04) | -8.65 ± 0.0024 | (9.61 ± 0.10) × 10^+5 M^−1 | (9.61 ± 0.10) × 10^+13 M^−1 s^−1 | (1.25 ± 0.02) | -8.788 ± 0.0024 | (1.04 ± 0.02) × 10^+5 M^−1 | (1.04 ± 0.02) × 10^+13 M^−1 s^−1 | 4 | static mechanism | electrostatic interactions | 10^+6 M^−1 | -0.148 ± 0 | 117.38 ± 0.01 | considerable delaying effect | 20 to 25 | effect on lag time and t0 of fibrillation (HEWL amyloid fibrils; pH 2.0): significant increase in the lag time and t0
COc1cc(/C=C/C(=O)C=C([O-])/C=C/c2ccc(OC(C)=O)c(OC)c2)ccc1OC(C)=O.COc1cc(/C=C/C(=O)C=C([O-])/C=C/c2ccc(OC(C)=O)c(OC)c2)ccc1OC(C)=O.[O]=[V+2] [VO(DAC)2, vanadyl diacetylcurcumin] | (1.35 ± 0.04) | -8.217 ± 0.858 | (2.70 ± 0.02) × 10^+4 M^−1 | (2.70 ± 0.02) × 10^+12 M^−1 s^−1 | (0.93 ± 0.02) | -5.767 ± 0.858 | (2.78 ± 0.03) × 10^+4 M^−1 | (2.78 ± 0.03) × 10^+12 M^−1 s^−1 | (0.75 ± 0.04) | -4.543 ± 0.858 | (2.80 ± 0.02) × 10^+4 M^−1 | (2.80 ± 0.02) × 10^+12 M^−1 s^−1 | 2 | dual mechanism, including both static and dynamic quenching | van der Waals interactions and hydrogen bonds | 10^+6 to 10^+3 M^−1 | -79.988 ± 0.246 | −1024.87 ± 3.44 | highest inhibitory effect | 7 to 10 | n (number of binding sites on each HEWL molecule) ([1]; T 298 K): (1.15 ± 0.03); ΔG^0 (Gibbs free energy change of binding) ([1]; T 298 K): -6.993 ± 0.858 kcal/mol; KSV (Stern-Volmer quenching constant) ([1]; T 298 K): (2.70 ± 0.04) × 10^+4 M^−1; kq (bimolecular quenching rate constant) ([1]; T 298 K): (2.70 ± 0.04) × 10^+12 M^−1 s^−1
